Experimental findings from ChEMBL document CHEMBL1131356, “New generation dopaminergic agents. 2. Discovery of 3-OH-phenoxyethylamine and 3-OH-N1-phenylpiperazine dopaminergic templates” (Bioorg Med Chem Lett, 1998) are described below.

The target in assay [1] is T1, 5-hydroxytryptamine receptor 1A (Mus musculus, UniProt Q64264).
T1 sequence (Q64264 whole entry): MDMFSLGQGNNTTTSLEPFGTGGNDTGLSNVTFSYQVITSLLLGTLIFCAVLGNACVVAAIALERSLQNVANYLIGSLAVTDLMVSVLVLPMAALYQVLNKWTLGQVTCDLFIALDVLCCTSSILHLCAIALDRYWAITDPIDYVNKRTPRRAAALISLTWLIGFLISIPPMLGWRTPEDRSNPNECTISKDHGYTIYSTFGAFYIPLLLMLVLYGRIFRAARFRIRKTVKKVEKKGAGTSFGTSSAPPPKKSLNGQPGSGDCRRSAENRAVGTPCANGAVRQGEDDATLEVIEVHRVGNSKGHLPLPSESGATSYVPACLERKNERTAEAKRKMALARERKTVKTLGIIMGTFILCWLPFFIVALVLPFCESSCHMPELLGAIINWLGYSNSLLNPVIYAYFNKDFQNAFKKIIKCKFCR
The experiment in a line: Binding affinity for 5-hydroxytryptamine 1A receptor.

The target of assay [2] is T2, D(4) dopamine receptor (Homo sapiens, UniProt P21917).
T2 sequence (P21917 whole entry): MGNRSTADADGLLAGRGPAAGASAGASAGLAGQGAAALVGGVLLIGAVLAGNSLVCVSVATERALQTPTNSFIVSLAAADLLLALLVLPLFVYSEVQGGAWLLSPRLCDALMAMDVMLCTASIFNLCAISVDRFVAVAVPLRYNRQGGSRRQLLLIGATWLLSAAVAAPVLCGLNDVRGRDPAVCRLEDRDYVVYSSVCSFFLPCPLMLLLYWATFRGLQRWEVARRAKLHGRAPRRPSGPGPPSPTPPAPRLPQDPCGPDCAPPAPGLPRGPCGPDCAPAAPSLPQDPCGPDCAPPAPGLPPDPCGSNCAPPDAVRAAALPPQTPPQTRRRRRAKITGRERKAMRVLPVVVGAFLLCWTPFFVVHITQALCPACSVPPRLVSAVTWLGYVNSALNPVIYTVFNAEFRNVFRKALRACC
The experiment in a line: Binding affinity towards human cloned Dopamine receptor D4.4 expressed in CHO cells using [3H]spiperone as radioligand. Type of assay: cell-based.

Assay [3] deals with T3, Adrenergic receptor alpha-1 (Homo sapiens, UniProt P35348+P25100+P35368).
T3 sequence (P35348 whole entry): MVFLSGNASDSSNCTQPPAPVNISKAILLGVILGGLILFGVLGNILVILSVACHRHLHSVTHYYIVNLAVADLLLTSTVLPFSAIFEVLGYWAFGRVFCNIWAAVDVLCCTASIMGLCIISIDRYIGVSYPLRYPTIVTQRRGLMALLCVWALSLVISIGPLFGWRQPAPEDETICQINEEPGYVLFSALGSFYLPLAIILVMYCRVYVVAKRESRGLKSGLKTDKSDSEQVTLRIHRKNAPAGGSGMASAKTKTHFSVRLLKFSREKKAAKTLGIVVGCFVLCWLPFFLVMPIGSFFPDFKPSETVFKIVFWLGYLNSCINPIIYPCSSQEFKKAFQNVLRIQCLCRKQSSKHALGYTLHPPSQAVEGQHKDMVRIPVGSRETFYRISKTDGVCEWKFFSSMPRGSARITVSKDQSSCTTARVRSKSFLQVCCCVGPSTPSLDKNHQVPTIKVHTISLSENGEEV
T3 sequence (P25100 whole entry): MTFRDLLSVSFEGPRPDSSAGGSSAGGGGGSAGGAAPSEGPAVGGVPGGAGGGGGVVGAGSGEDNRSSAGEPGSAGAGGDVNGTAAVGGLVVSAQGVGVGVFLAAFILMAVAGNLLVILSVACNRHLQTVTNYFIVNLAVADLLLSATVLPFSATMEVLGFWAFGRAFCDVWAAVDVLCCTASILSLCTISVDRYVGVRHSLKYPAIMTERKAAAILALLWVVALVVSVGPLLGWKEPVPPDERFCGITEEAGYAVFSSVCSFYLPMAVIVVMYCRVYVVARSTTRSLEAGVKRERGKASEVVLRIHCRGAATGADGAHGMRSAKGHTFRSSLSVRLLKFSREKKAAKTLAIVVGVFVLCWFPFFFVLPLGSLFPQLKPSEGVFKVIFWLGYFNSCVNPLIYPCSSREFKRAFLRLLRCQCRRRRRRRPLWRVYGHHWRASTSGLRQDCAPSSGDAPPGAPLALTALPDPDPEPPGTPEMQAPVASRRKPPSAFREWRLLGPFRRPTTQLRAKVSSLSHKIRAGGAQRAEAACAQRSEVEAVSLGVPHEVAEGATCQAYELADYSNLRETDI
T3 sequence (P35368 whole entry): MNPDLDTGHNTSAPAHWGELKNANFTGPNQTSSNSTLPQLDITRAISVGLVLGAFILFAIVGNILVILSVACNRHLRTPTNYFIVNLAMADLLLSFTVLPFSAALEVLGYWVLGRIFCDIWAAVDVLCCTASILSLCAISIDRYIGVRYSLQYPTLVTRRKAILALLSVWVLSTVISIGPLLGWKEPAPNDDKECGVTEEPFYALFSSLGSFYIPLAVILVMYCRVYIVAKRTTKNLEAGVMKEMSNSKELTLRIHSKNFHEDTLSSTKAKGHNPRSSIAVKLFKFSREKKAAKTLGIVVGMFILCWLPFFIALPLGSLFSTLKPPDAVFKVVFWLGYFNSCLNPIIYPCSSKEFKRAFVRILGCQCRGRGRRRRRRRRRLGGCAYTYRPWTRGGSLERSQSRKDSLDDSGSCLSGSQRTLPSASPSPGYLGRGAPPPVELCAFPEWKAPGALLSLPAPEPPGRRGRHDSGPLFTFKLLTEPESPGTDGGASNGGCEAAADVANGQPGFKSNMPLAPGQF
The experiment in a line: Binding affinity for Alpha-1 adrenergic receptor. Type of assay: protein assay.

The next assay concerns the target D(3) dopamine receptor (Homo sapiens, UniProt P35462). Put plainly: biochemical.
The test system of another assay is Mus musculus. The experiment in a line: Dose required to inhibit locomotor activity in mice when administered subcutaneously. Type of assay: functional. Conditions: sc.
In assay [4] the target is T4, D(2) dopamine receptor (Rattus norvegicus, UniProt P61169).
T4 sequence (P61169 whole entry): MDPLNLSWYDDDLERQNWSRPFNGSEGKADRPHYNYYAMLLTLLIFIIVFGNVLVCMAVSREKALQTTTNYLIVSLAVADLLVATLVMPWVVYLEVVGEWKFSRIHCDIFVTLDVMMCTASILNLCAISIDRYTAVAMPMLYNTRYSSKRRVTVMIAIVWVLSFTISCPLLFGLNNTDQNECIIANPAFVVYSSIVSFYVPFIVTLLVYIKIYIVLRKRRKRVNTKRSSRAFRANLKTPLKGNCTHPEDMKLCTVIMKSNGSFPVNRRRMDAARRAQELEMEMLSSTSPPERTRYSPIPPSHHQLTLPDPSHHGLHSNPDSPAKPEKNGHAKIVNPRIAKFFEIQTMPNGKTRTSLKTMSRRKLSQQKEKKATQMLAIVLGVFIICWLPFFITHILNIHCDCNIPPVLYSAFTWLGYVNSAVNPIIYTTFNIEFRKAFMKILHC
Description: Agonistic activity towards dopamine D2 receptor using radioligand [3H]quinpirole in rat striatal membranes
The target of assay [5] is D(2) dopamine receptor (Homo sapiens, UniProt P14416). The experiment in a line: biochemical.
Chain of D(2) dopamine receptor (Homo sapiens, UniProt P14416) (P14416 whole entry): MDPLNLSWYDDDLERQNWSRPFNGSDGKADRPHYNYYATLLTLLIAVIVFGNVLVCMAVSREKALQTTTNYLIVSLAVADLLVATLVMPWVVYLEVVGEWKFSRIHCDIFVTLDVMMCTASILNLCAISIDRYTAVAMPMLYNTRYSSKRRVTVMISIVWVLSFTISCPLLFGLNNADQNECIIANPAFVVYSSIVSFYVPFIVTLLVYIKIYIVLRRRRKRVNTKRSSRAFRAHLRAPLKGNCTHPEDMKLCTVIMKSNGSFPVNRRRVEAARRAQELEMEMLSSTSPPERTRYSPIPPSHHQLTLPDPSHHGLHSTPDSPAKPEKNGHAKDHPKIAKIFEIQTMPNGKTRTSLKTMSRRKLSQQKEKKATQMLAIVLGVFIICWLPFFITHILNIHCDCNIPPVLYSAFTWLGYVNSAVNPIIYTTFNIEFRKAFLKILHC
Description: Binding affinity towards human cloned dopamine (hD2s) receptors expressed in CHO cell membranes using [3H]spiperone
The target of assay [6] is T4, D(2) dopamine receptor. The source holds these as a separate data set.
Description: Antagonistic activity towards dopamine D2 receptor using radioligand [3H]spiperone in rat striatal membranes
For assay [7], the target named is T2, D(4) dopamine receptor. Put plainly: Binding affinity towards human cloned dopamine (hD4.4) receptor expressed in CHO cells using [3H]spiperone as radioligand. Type of assay: cell-based.

The term Ki denotes a measure of affinity in units of concentration, obtained from inhibition or displacement. Low values mean tighter binding, high ones weaker binding. The term ED50 denotes the midpoint of the dose-response relation.

Chain of D(3) dopamine receptor (P35462 whole entry): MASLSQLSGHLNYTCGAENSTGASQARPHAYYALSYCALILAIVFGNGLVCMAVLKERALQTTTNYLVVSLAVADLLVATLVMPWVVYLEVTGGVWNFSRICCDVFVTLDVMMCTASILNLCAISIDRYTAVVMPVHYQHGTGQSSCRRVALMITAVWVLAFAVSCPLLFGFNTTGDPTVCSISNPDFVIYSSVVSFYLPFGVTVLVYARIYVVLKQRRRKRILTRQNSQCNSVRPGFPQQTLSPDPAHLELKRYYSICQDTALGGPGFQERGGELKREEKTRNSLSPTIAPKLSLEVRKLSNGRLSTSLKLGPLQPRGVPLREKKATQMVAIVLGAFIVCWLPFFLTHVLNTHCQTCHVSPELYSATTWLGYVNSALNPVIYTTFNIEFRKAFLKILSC
Description for D(3) dopamine receptor: Binding affinity towards human cloned dopamine (hD3) receptor expressed in CHO cells using [3H]spiperone as radioligand

Take `Oc1cccc(N2CCN(Cc3ccccc3)CC2)c1`: the Ki in assay [1] was greater than 1000 nM; at D(4) dopamine receptor [2], greater than 400 nM; in assay [3] it was greater than 1000 nM; on D(3) dopamine receptor, 28.9 nM. In the assay on Mus musculus, this compound registered a median effective dose (ED50) of 1.4 mg/kg.
In the case of `CS(=O)(=O)Nc1cc(OCCNCc2ccccc2)ccc1F`, the Ki is 7.9 nM on D(2) dopamine receptor [4], greater than 5000 nM on D(3) dopamine receptor, greater than 10000 nM on D(2) dopamine receptor [5] and 24.1 nM on D(2) dopamine receptor [6].
`Oc1ccc(N2CCN(Cc3ccccc3)CC2)cc1`: the Ki on D(4) dopamine receptor [2] is 91.8 nM; at D(2) dopamine receptor [4] it was 120 nM; at D(3) dopamine receptor, greater than 400 nM; at D(2) dopamine receptor [5], greater than 300 nM.
On to `c1ccc(CN2CCN(c3ccccc3)CC2)cc1`, for which the Ki on D(4) dopamine receptor [2] is 267 nM; on D(2) dopamine receptor [4] it was 16.2 nM; at D(3) dopamine receptor, greater than 400 nM; on D(2) dopamine receptor [5], greater than 300 nM; on D(2) dopamine receptor [6], 124 nM.
Turning to `Oc1cccc(OCCNCc2ccccc2)c1`, the inhibitory constant (Ki) in assay [1] is 1780 nM; in assay [3], 5291 nM; on D(2) dopamine receptor [4] it was 3.6 nM; on D(3) dopamine receptor it was 11 nM; at D(2) dopamine receptor [5] it was 75.8 nM; at D(4) dopamine receptor [7] it was 80.6 nM. The same compound came in with a Ki at D(2) dopamine receptor [6] of 101 nM. The same compound had a 50% effective dose (ED50) in the assay with Mus musculus of 0.08 mg/kg.
For the compound `CS(=O)(=O)Nc1cccc(OCCNCc2ccccc2)c1`, the Ki on D(2) dopamine receptor [4] came out at 4.4 nM; on D(3) dopamine receptor, 42.5 nM; on D(2) dopamine receptor [5], 37.6 nM; at D(4) dopamine receptor [7], 500 nM; on D(2) dopamine receptor [6], 29.3 nM.
As to `CS(=O)(=O)Nc1cc(OCCNCc2cccs2)ccc1Cl`, the inhibition constant (Ki) on D(2) dopamine receptor [4] stood at 2.6 nM; at D(3) dopamine receptor, 27.8 nM; on D(2) dopamine receptor [5] it was 9 nM; on D(4) dopamine receptor [7] it was 137 nM; on D(2) dopamine receptor [6] it was 6 nM.
In the case of `Oc1ccc(OCCNCc2ccccc2)cc1`, the Ki was 113 nM on D(2) dopamine receptor [4], greater than 5000 nM on D(3) dopamine receptor, greater than 10000 nM on D(2) dopamine receptor [5] and 277 nM at D(4) dopamine receptor [7].
Consider `Oc1ccccc1OCCNCc1ccccc1`, for which the Ki at D(2) dopamine receptor [4] turned out to be 9.6 nM; on D(3) dopamine receptor, 281 nM; at D(2) dopamine receptor [5], 456 nM; at D(4) dopamine receptor [7], 297 nM; on D(2) dopamine receptor [6], 191 nM.
On to `Nc1cc(OCCNCc2ccccc2)ccc1Cl`, for which the Ki on D(2) dopamine receptor [4] was 237 nM; at D(3) dopamine receptor, greater than 1000 nM; at D(2) dopamine receptor [5], greater than 1000 nM; at D(4) dopamine receptor [7], 27.2 nM.
On to `Oc1ccccc1N1CCN(Cc2ccccc2)CC1`, for which the Ki on D(4) dopamine receptor [2] was greater than 400 nM; at D(2) dopamine receptor [4], 64.7 nM; at D(3) dopamine receptor, greater than 400 nM; at D(2) dopamine receptor [5] it was greater than 300 nM; at D(2) dopamine receptor [6], 118 nM.
Turning to `CS(=O)(=O)Nc1cc(OCCNCc2cccs2)ccc1F`, the inhibition constant (Ki) at D(4) dopamine receptor [2] was greater than 400 nM; on D(2) dopamine receptor [4], 19.7 nM; on D(3) dopamine receptor, greater than 400 nM; at D(2) dopamine receptor [5] it was greater than 300 nM; on D(2) dopamine receptor [6] it was 11.7 nM.
Consider `CS(=O)(=O)Nc1cc(OCCNCc2ccccc2)ccc1Cl`, for which the Ki on D(2) dopamine receptor [4] amounted to 1.6 nM; on D(3) dopamine receptor it was 11 nM; at D(2) dopamine receptor [5] it was 75.8 nM; on D(2) dopamine receptor [6], 3 nM.
Regarding `c1ccc(CNCCOc2ccccc2)cc1`, the Ki was 68.4 nM on D(2) dopamine receptor [4]; greater than 400 nM on D(3) dopamine receptor; greater than 300 nM at D(2) dopamine receptor [5]; 94 nM at D(4) dopamine receptor [7]; 241 nM at D(2) dopamine receptor [6].
